According to patent US9150577B2, “Heterocyclic compounds containing an indole core” (Boehringer Ingelheim International GmbH, priority 2009, dated 2015):

Target: Human RSK2 (Homo sapiens (Human), UniProt P51812)
Assay: Human RSK2 assay (Kinase Glo Plus, residual ATP);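 further: recombinant human RSK2 phosphorylating a substrate peptide, 90 min at 28 °C, leftover ATP read by luminescence, RLU scaled between no-kinase background and uninhibited kinase controls, 4-parameter fit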
Assay type: biochemical
Conditions: not given

Sequence of Human RSK2 (P51812 whole entry): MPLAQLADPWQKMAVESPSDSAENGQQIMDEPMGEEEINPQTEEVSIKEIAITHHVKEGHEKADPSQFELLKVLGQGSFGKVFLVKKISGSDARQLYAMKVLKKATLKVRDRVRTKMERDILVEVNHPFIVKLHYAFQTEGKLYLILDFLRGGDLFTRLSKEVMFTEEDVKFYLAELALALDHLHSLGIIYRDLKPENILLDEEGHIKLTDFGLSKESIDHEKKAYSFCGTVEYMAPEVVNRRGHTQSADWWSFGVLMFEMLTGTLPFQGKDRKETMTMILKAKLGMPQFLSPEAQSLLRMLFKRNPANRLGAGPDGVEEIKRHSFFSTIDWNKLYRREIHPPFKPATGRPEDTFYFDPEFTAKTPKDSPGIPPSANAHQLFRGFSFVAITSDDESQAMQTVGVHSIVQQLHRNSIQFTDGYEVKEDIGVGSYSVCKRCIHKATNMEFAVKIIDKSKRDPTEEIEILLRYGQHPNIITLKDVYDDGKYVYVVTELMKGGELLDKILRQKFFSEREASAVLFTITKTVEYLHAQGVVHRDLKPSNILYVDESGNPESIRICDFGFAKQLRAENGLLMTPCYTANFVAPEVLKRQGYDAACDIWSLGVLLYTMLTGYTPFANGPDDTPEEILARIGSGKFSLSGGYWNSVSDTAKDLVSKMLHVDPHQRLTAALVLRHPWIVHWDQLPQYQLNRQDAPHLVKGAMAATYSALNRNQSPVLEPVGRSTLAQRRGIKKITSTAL

Point of comparison: `COCCn1cc(NC(=O)c2ccc3cc4n(c3c2)CCCNC4=O)cn1` [Example 38, N-[1-(2-methoxyethyl)-1H-pyrazol-4-yl]-1-oxo-2,3,4,5-tetrahydro-1H-[1,4]diazepino[1,2-a]indole-8-carboxamide], IC50 19 nM. Against it:
- O=C(Nc1nc2cc(Cl)cc(CN3CCOCC3)c2[nH]1)c1ccc2cc3n(c2c1)CCCNC3=O [Example 46, N-[5-chloro-7-(morpholin-4-ylmethyl)-1H-benzimidazol-2-yl]-1-oxo-2,3,4,5-tetrahydro-1H-[1,4]diazepino[1,2-a]indole-8-carboxamide] — 2.2-fold lower, 8.7 nM
- O=C(Nc1ccc(Cl)cc1)c1ccc2cc3n(c2c1)CCCNC3=O [Example 4, N-(4-chlorophenyl)-1-oxo-2,3,4,5-tetrahydro-1H-[1,4]diazepino[1,2-a]indole-8-carboxamide] — 10-fold higher, 190 nM
- CC1(C)CNC(=O)c2cc3ccc(C(=O)Nc4cc(-c5ccccc5)no4)cc3n21 [Example 201, 4,4-dimethyl-1-oxo-N-(3-phenyl-1,2-oxazol-5-yl)-1,2,3,4-tetrahydropyrazino[1,2-a]indole-7-carboxamide] — within 1.5-fold, 15 nM
- O=C(Nc1ccn(-c2ccccc2)n1)c1ccc2cc3n(c2c1)CCCNC3=O [Example 14, 1-oxo-N-(1-phenyl-1H-pyrazol-3-yl)-2,3,4,5-tetrahydro-1H-[1,4]diazepino[1,2-a]indole-8-carboxamide] — 5.7-fold higher, 108 nM
- Cc1noc(NC(=O)c2ccc3cc4n(c3c2)CCCNC4=O)c1Cl [Example 194, N-(4-chloro-3-methyl-1,2-oxazol-5-yl)-1-oxo-2,3,4,5-tetrahydro-1H-[1,4]diazepino[1,2-a]indole-8-carboxamide] — 170-fold higher, 3300 nM
- O=C(Nc1cnn(Cc2ccccc2)c1)c1ccc2cc3n(c2c1)CCCNC3=O [Example 32, N-(1-benzyl-1H-pyrazol-4-yl)-1-oxo-2,3,4,5-tetrahydro-1H-[1,4]diazepino[1,2-a]indole-8-carboxamide] — 4.8-fold lower, 4 nM
- CC1CCNC(=O)c2cc3ccc(C(=O)Nc4cn(C)c(C(=O)NC5CCCC5)n4)cc3n21 (centres unmarked) [Example 234, N-[2-(cyclopentylcarbamoyl)-1-methyl-1H-imidazol-4-yl]-5-methyl-1-oxo-2,3,4,5-tetrahydro-1H-[1,4]diazepino[1,2-a]indole-8-carboxamide] — 9-fold lower, 2.1 nM
- CCn1c(NC(=O)c2ccc3cc4n(c3c2)C(C)CNC4=O)nc2ccccc21 (centres unmarked) [Example 83, N-(1-ethyl-1H-benzimidazol-2-yl)-4-methyl-1-oxo-1,2,3,4-tetrahydropyrazino[1,2-a]indole-7-carboxamide] — 30-fold lower, 0.63 nM
- CC(C)c1ccc2[nH]c(NC(=O)c3ccc4cc5n(c4c3)CCCNC5=O)nc2c1 [Example 42, 1-oxo-N-[5-(propan-2-yl)-1H-benzimidazol-2-yl]-2,3,4,5-tetrahydro-1H-[1,4]diazepino[1,2-a]indole-8-carboxamide] — 3.1-fold lower, 6.2 nM
- CCn1c(NC(=O)c2ccc3cc4n(c3c2)[C@@H](C)[C@@H](C)NC4=O)nc2ccccc21 (relative stereo) [Example 79, N-(1-ethyl-1H-benzimidazol-2-yl)-cis-3,4-dimethyl-1-oxo-1,2,3,4-tetrahydropyrazino[1,2-a]indole-7-carboxamide] — 30-fold lower, 0.64 nM
- CC1CNC(=O)c2cc3ccc(C(=O)Nc4nc5ccccc5n4CCCN(C)C)cc3n21 (centres unmarked) [Example 100, N-{1-[3-(dimethylamino)propyl]-1H-benzimidazol-2-yl}-4-methyl-1-oxo-1,2,3,4-tetrahydropyrazino[1,2-a]indole-7-carboxamide] — 15-fold lower, 1.3 nM
- C[C@H]1NC(=O)c2cc3ccc(C(=O)Nc4cnn(C)c4)cc3n2[C@H]1C (relative stereo) [Example 21, cis-3,4-dimethyl-N-(1-methyl-1H-pyrazol-4-yl)-1-oxo-1,2,3,4-tetrahydropyrazino[1,2-a]indole-7-carboxamide] — 4.4-fold lower, 4.3 nM
- C[C@H]1NC(=O)c2cc3ccc(C(=O)Nc4cnn(Cc5ccccc5)c4)cc3n2[C@H]1C (relative stereo) [Example 29, N-(1-benzyl-1H-pyrazol-4-yl)-cis-3,4-dimethyl-1-oxo-1,2,3,4-tetrahydropyrazino[1,2-a]indole-7-carboxamide] — 10-fold lower, 1.9 nM
- C[C@@H]1NC(=O)c2cc3ccc(C(=O)Nc4nc5ccccc5n4CCCN(C)C)cc3n2[C@H]1C (relative stereo) [Example 91, N-{1-[3-(dimethylamino)propyl]-1H-benzimidazol-2-yl}-trans-3,4-dimethyl-1-oxo-1,2,3,4-tetrahydropyrazino[1,2-a]indole-7-carboxamide] — 2.2-fold lower, 8.5 nM
- Cc1cc(NC(=O)c2ccc3cc4n(c3c2)[C@H](C)CCNC4=O)no1 [Example 225, (5R)-5-methyl-N-(5-methyl-1,2-oxazol-3-yl)-1-oxo-2,3,4,5-tetrahydro-1H-[1,4]diazepino[1,2-a]indole-8-carboxamide] — 1.6-fold lower, 12 nM
- COc1cccc(NC(=O)c2ccc3cc4n(c3c2)CCCNC4=O)c1 [Example 148, N-(3-methoxyphenyl)-1-oxo-2,3,4,5-tetrahydro-1H-[1,4]diazepino[1,2-a]indole-8-carboxamide] — 10-fold higher, 190 nM
- Cc1cc(NC(=O)c2ccc3cc4n(c3c2)C(C)(C)CNC4=O)no1 [Example 126, 4,4-dimethyl-N-(5-methyl-1,2-oxazol-3-yl)-1-oxo-1,2,3,4-tetrahydropyrazino[1,2-a]indole-7-carboxamide] — 1.9-fold higher, 36 nM
- CC(C)CCn1cc(NC(=O)c2ccc3cc4n(c3c2)CCCNC4=O)cn1 [Example 35, N-[1-(3-methylbutyl)-1H-pyrazol-4-yl]-1-oxo-2,3,4,5-tetrahydro-1H-[1,4]diazepino[1,2-a]indole-8-carboxamide] — 1.7-fold lower, 11 nM
- CC(C)n1c(NC(=O)c2ccc3cc4n(c3c2)[C@@H](C)[C@@H](C)CNC4=O)nc2ccccc21 (relative stereo) [Example 70, cis-4,5-dimethyl-1-oxo-N-[1-(propan-2-yl)-1H-benzimidazol-2-yl]-2,3,4,5-tetrahydro-1H-[1,4]diazepino[1,2-a]indole-8-carboxamide] — 11-fold lower, 1.8 nM
- C[C@H]1CNC(=O)c2cc3ccc(C(=O)Nc4nc5ccccc5n4CCCN(C)C)cc3n21 [Example 131, (4S)-N-{1-[3-(dimethylamino)propyl]-1H-benzimidazol-2-yl}-4-methyl-1-oxo-1,2,3,4-tetrahydropyrazino[1,2-a]indole-7-carboxamide] — within 1.5-fold, 15 nM
- NC(=O)c1ccccc1NC(=O)c1ccc2cc3n(c2c1)CCCNC3=O [Example 215, N-(2-carbamoylphenyl)-1-oxo-2,3,4,5-tetrahydro-1H-[1,4]diazepino[1,2-a]indole-8-carboxamide] — within 1.5-fold, 21 nM
- O=C(Nc1cc(-c2ccccc2)[nH]n1)c1ccc2cc3n(c2c1)CCCNC3=O [Example 218, 1-oxo-N-(5-phenyl-1H-pyrazol-3-yl)-2,3,4,5-tetrahydro-1H-[1,4]diazepino[1,2-a]indole-8-carboxamide] — 2.1-fold higher, 40 nM
- O=C(Nc1cccnc1)c1ccc2cc3n(c2c1)CC(F)(F)CNC3=O [Example 152, 4,4-difluoro-1-oxo-N-(pyridin-3-yl)-2,3,4,5-tetrahydro-1H-[1,4]diazepino[1,2-a]indole-8-carboxamide] — 89-fold higher, 1700 nM
- O=C(Nc1nc2ccccc2n1C1CCCC1)c1ccc2cc3n(c2c1)CCCNC3=O [Example 75, N-(1-cyclopentyl-1H-benzimidazol-2-yl)-1-oxo-2,3,4,5-tetrahydro-1H-[1,4]diazepino[1,2-a]indole-8-carboxamide] — within 1.5-fold, 25 nM
- CC(C)n1c(NC(=O)c2ccc3cc4n(c3c2)C(C)CCNC4=O)nc2ccccc21 (centres unmarked) [Example 165, 5-methyl-1-oxo-N-[1-(propan-2-yl)-1H-benzimidazol-2-yl]-2,3,4,5-tetrahydro-1H-[1,4]diazepino[1,2-a]indole-8-carboxamide] — 11-fold lower, 1.8 nM
- CC(C)(C)c1cnc(NC(=O)c2ccc3cc4n(c3c2)CCCNC4=O)o1 [Example 111, N-(5-tert-butyl-1,3-oxazol-2-yl)-1-oxo-2,3,4,5-tetrahydro-1H-[1,4]diazepino[1,2-a]indole-8-carboxamide] — 95-fold higher, 1800 nM
- Cc1cc(NC(=O)c2ccc3cc4n(c3c2)CC2(CCC2)CNC4=O)no1 [Example 170, N-(5-methyl-1,2-oxazol-3-yl)-1′-oxo-2′,3′-dihydro-1′H-spiro[cyclobutane-1,4′-[1,4]diazepino[1,2-a]indole]-8′-carboxamide] — 68-fold higher, 1300 nM
- Cc1cnc(NC(=O)c2ccc3cc4n(c3c2)CCCNC4=O)s1 [Example 106, N-(5-methyl-1,3-thiazol-2-yl)-1-oxo-2,3,4,5-tetrahydro-1H-[1,4]diazepino[1,2-a]indole-8-carboxamide] — 16-fold higher, 300 nM
- O=C(Nc1nc2cc(Cl)ccc2[nH]1)c1ccc2cc3n(c2c1)CCCNC3=O [Example 47, N-(5-chloro-1H-benzimidazol-2-yl)-1-oxo-2,3,4,5-tetrahydro-1H-[1,4]diazepino[1,2-a]indole-8-carboxamide] — 2.4-fold lower, 8 nM
- CC(C)c1cccc(NC(=O)c2ccc3cc4n(c3c2)CCCNC4=O)c1 [Example 145, 1-oxo-N-[3-(propan-2-yl)phenyl]-2,3,4,5-tetrahydro-1H-[1,4]diazepino[1,2-a]indole-8-carboxamide] — 7.4-fold higher, 140 nM
- C[C@@H]1CNC(=O)c2cc3ccc(C(=O)Nc4nc5ccccc5n4CCCN(C)C)cc3n21 [Example 129, (4R)-N-{1-[3-(dimethylamino)propyl]-1H-benzimidazol-2-yl}-4-methyl-1-oxo-1,2,3,4-tetrahydropyrazino[1,2-a]indole-7-carboxamide] — 27-fold lower, 0.7 nM

System: NHE1
Assay: not given
Conditions: basal; cited from earlier work

For `Cc1ccc(-c2c(C(=O)CF)n(CCCO)c3ncnc(N)c23)cc1` [fmk], the “basal NHE1 activity” value is given as “without affecting basal activity”.

Same assay, conditions: cited from earlier work

For `Cc1ccc(-c2c(C(=O)CF)n(CCCO)c3ncnc(N)c23)cc1` [fmk], the “phosphorylation of NHE1” value is listed as “inhibit”.

Same assay, conditions: phenylephrine-induced; cited from earlier work

For `Cc1ccc(-c2c(C(=O)CF)n(CCCO)c3ncnc(N)c23)cc1` [fmk], the “phenylephrine-induced enhanced NHE1 activity” value is listed as “inhibit”.
